Assay results as given in patent publication US10239887B2, “Positive allosteric modulators of the muscarinic acetylcholine receptor M4” (Vanderbilt University, priority 2016, dated 2019).
≈ marks a conversion by molar mass, not a printed value.

Key:
[1] = in vivo; conditions: dog, plasma
[2] = in vivo; conditions: cynomolgus monkey
[3] = biological target: P450 3A4 (Homo sapiens, UniProt P08684); test: P450 3A4 inhibition; format: in vitro ADME
Protocol: (§1) Compound 76 was in several in vitro assays to investigate both metabolism and pharmacokinetics. These assays were performed according to known methods as generally described in the following references: Conde-Ceide et al. ACS Med. Chem. Lett. 2015, 6, 716-720; Morris et al. J. Med. Chem. 2014, 57, 10192-10197; and Bubser et al. ACS Chem. Neurosci. 2014, 5, 920-942.

[4] = intrinsic clearance, cyno; format: in vitro ADME; conditions: cynomolgus monkey
Protocol: as §1

[5] = intrinsic clearance, human; format: in vitro ADME
Protocol: as §1

[6] = tested on: four strains of Salmonella; test: Eurofins Ames Test; conditions: 5-100 μM
[7] = intrinsic clearance, rat; format: in vitro ADME
Protocol: as §1

[8] = solubility (aqueous, faSSIF, SGF); format: physicochemical
[9] = in vivo DMPK, rat; conditions: 3 mg/kg
[10] = biological target: T1, human mAChR M4 (Homo sapiens, UniProt P08173); test: mAChR M4 cell-based functional assay (calcium flux), human M4; conditions: Human M4; % ACh maximum at 30 μM
T1 sequence (P08173 1-479): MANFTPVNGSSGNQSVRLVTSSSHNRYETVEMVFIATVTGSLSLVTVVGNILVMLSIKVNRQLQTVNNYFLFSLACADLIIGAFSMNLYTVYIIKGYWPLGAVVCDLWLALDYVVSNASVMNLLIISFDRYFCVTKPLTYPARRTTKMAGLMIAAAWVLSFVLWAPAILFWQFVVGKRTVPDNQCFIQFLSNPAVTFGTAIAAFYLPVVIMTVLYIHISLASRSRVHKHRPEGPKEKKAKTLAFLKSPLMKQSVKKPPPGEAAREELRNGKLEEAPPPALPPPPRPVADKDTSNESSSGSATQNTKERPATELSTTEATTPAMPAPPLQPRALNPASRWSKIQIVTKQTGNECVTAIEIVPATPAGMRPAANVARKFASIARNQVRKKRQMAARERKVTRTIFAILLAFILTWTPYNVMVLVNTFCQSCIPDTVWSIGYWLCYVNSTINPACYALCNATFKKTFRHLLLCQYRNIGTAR

[11] = biological target: cynomolgus monkey M4 (Macaca fascicularis, UniProt G7PQB4); test: mAChR M4 cell-based functional assay (calcium flux), cyno M4; conditions: CHO-K1 cells
Sequence of cynomolgus monkey M4 (G7PQB4 1-479): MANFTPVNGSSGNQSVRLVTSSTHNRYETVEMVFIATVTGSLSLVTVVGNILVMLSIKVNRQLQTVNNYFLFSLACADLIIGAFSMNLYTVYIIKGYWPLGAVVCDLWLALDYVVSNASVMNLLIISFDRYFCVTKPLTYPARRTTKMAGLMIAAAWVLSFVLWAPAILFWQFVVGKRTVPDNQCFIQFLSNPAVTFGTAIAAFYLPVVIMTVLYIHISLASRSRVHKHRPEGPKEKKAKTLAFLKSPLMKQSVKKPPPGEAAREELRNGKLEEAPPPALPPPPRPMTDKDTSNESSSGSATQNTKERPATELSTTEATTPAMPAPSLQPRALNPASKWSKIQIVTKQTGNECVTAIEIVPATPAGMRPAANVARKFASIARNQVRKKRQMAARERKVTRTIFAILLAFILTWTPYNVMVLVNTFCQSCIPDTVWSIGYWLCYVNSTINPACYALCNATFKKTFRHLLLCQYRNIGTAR

[12] = in vivo DMPK, cyno
[13] = biological target: T2, rat mAChR M4 (Rattus norvegicus, UniProt P08485); test: mAChR M4 cell-based functional assay (calcium flux), rat M4; set-up: Emax: dose or concentration left out as unconfirmed
T2 sequence (P08485 1-478): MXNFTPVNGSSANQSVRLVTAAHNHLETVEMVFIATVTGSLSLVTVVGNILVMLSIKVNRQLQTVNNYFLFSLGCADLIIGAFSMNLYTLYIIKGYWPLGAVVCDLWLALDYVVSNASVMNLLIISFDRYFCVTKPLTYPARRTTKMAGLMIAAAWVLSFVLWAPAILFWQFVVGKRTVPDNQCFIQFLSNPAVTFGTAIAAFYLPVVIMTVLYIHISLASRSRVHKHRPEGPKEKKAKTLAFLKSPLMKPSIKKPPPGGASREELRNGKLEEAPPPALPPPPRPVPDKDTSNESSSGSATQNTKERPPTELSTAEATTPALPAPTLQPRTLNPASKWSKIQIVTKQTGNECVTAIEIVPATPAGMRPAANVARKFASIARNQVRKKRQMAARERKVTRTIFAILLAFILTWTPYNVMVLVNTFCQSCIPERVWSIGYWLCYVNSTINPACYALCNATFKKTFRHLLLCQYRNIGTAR

[14] = fraction unbound in plasma, cyno; format: in vitro ADME; conditions: cynomolgus monkey, read-out: Cyno Fu (plasma)
Protocol: as §1

[15] = tested on: 68 primary molecular targets; test: Eurofins LeadProfilingScreen (binding); conditions: 10 μM (binding); all targets except human adenosine A2a
[16] = biological target: T3, Human M2 (Homo sapiens, UniProt P08172); test: analogous cell-based functional assay using human M2
T3 sequence (P08172 1-466): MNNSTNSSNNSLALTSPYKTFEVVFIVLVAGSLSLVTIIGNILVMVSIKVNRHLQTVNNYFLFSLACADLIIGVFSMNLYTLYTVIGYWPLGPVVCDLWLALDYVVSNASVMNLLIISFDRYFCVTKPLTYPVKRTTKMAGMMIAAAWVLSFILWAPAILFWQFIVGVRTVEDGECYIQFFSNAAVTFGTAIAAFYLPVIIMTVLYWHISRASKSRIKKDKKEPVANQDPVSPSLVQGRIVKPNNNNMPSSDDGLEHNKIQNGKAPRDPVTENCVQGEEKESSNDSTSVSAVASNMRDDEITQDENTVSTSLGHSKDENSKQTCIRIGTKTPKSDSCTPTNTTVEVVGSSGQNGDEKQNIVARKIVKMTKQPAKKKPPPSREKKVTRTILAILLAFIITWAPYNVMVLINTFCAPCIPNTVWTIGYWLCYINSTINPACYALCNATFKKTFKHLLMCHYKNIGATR

[17] = intrinsic clearance, dog; format: in vitro ADME
Protocol: as §1

Sequence of P450 3A4 (P08684 whole entry): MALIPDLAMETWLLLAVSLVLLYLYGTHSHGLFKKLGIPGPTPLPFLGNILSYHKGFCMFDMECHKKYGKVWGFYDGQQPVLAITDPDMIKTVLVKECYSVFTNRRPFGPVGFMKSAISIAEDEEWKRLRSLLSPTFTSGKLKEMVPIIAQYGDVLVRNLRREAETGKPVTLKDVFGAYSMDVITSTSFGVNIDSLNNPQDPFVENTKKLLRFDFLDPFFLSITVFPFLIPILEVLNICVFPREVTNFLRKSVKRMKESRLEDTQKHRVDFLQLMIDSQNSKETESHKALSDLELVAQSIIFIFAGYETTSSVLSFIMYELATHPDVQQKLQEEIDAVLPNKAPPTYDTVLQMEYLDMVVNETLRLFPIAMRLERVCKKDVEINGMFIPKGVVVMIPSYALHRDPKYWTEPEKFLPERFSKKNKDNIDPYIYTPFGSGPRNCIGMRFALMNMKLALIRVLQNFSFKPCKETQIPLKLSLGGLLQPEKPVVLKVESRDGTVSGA

Structure (SMILES): Cc1nnc2sc3c(NCc4ccc(C(C)(C)O)cc4)ncnc3c2c1C [Compound 76, 2-[4-[[(3,4-Dimethylpyrimido[4′,5′:4,5]thieno[2,3-c]pyridazin-8-yl)amino]methyl]phenyl]propan-2-ol]
- Vd [1]: 1.4 L/kg
- clearance [1]: 4.7 mL/min/kg
- half-life [1]: 4.2 h
- Kp ([2]; brain): 0.37
- Kp uu ([2]; brain): 0.62
- Vd ([2]; plasma): 0.9 L/kg
- clearance ([2]; plasma): 5.3 mL/min/kg
- half-life ([2]; plasma): 4.5 h
- IC50 [3]: 24000 nM
- CLint scaled [4]: 102 mL/min/kg
- CLint scaled [5]: 15 mL/min/kg
- Ames test result [6]: clean
- CLint scaled [7]: 87 mL/min/kg
- solubility ([8]; aqueous medium (pH 7.4), pH 7.4, aqueous buffer): 166 µM (≈ 63 µg/mL)
- SGF ([8]; solubility in SGF): 180 µM
- faSSIF ([8]; solubility in faSSIF): 24 µM
- Rat oral F [9]: >100%
- Emax [10]: 86%
- EC50 [11]: 120 nM
- Cyno oral F ([12]; 3 mg/kg): 44%
- Cyno CSF: plasma Kp ([12]; cynomolgus monkey, in vivo): 0.01
- Cyno CSF: plasma Kp, u ([12]; cynomolgus monkey, in vivo): 1.1
- Emax [13]: 77%
- fraction unbound [14]: 0.009
- inhibition of each target in the LeadProfilingScreen [15]: < 50%
- Emax ([16]; Human M2): 48%
- EC50 ([16]; analogous assay using human M2): 2800 nM
- CLint scaled [17]: 35 mL/min/kg
